Measured values reported in patent US20230407243A1, “GENETIC PLATFORM TO INVESTIGATE THE FUNCTIONS OF BACTERIAL DRUG EFFLUX PUMPS” (priority 2022, published 2023).
Read-outs that look alike come from different tables or passages of the source.

Assays:
Type in all cases: cell-based, Escherichia coli
E. coli EKO-35 = experiment: microbe, parasite or virus in culture; conditions: for Fold change of MICs: EKO-35 compared to EKO-35 (reference); for Minimum inhibitory concentration (MIC), EKO-35 / Minimum Inhibitory Concentration, EKO-35 / MIC: technical duplicate; for MIC: Escherichia coli, EKO35
Procedure, shortened: (§1)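 Broth MIC in cation-adjusted Mueller-Hinton (MHB II) following twofold compound titration in duplicate. Bacteria were prepared at OD600 ~1.0 in PBS and diluted 1/2000. Endpoint OD600 after 18 h at 37 °C was corrected using the pre-incubation reading.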

[1] = tested on: wild-type E. coli K-12 str. BW25113; experiment: microbe, parasite or virus in culture; conditions: technical duplicate; for MIC: Escherichia coli, BW25113
Procedure, shortened: as §1

E. coli ΔtolC = experiment: microbe, parasite or virus in culture; conditions: for Minimum inhibitory concentration (MIC), ΔtolC: Table 10, without pore; for Minimum inhibitory concentration (MIC), ΔtolC / Minimum Inhibitory Concentration, ΔtolC: technical duplicate; for Minimum Inhibitory Concentration, ΔtolC: Table 13A, non-porinated; for MIC: Escherichia coli, 18 h, read-out: Minimum Inhibitory Concentration, ΔtolC
Procedure, shortened: as §1

EKO-35-Pore = experiment: MIC susceptibility profiling, porinated strain; conditions: for Fold changes of MICs: EKO-35-Pore compared to EKO-35-Pore (reference); for Minimum inhibitory concentration (MIC), Pore EKO-35 / Minimum inhibitory concentration, EKO-35-Pore / MIC: technical duplicate; for MIC: Escherichia coli
Procedure, shortened: (§2)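 E. coli strains carrying a genomically integrated constitutive fhuA ΔC/Δ4L pore were grown 18 h in LB at 37 °C, then diluted 1/2000 in MHB II from OD600 ~1.0. Compounds were tested in duplicate, 2-fold serial titration, for 18 h at 37 °C with shaking. MIC came from OD600 with the pre-incubation background subtracted.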

ΔtolC-Pore = experiment: microbe, parasite or virus in culture; conditions: for Minimum inhibitory concentration (MIC), Pore ΔtolC: Table 10, with pore; for Minimum inhibitory concentration (MIC), Pore ΔtolC / Minimum inhibitory concentration, ΔtolC-Pore: technical duplicate; for Minimum inhibitory concentration, ΔtolC-Pore: Table 14A, porinated; for MIC: Escherichia coli, 18 h, read-out: Minimum inhibitory concentration, ΔtolC-Pore
Procedure, shortened: as §2

wild-type (WT) K-12-Pore = experiment: microbe, parasite or virus in culture; conditions: technical duplicate; for MIC: Escherichia coli
Procedure, shortened: as §2

EKO-35 araC::mdtEF = experiment: MIC susceptibility profiling, efflux platform; conditions: for Fold change of MICs: EKO-35 araC::mdtEF compared to EKO-35; for Minimum Inhibitory Concentration, EKO-35 araC::mdtEF / MIC: Table 13A, non-porinated, technical duplicate; for MIC: Escherichia coli, read-out: Minimum Inhibitory Concentration, EKO-35 araC::mdtEF
Procedure, shortened: as §1

EKO-35 araC::acrB = experiment: MIC susceptibility profiling, efflux platform; conditions: for Fold change of MICs: EKO-35 araC::acrB compared to EKO-35; for Minimum Inhibitory Concentration, EKO-35 araC::acrB / MIC: Table 13A, non-porinated, technical duplicate; for MIC: Escherichia coli, read-out: Minimum Inhibitory Concentration, EKO-35 araC::acrB
Procedure, shortened: as §1

[2] = Table 10, without pore, read-out: Minimum inhibitory concentration (MIC), EKO-35
[3] = Table 13A, non-porinated, read-out: Minimum Inhibitory Concentration, EKO-35
[4] = Table 10, without pore, read-out: Minimum inhibitory concentration (MIC), K-12
[5] = Table 13A, non-porinated, read-out: Minimum Inhibitory Concentration, K-12
[6] = Table 10, with pore, read-out: Minimum inhibitory concentration (MIC), Pore EKO-35
[7] = Table 14A, porinated, read-out: Minimum inhibitory concentration, EKO-35-Pore
[8] = Table 10, with pore, read-out: Minimum inhibitory concentration (MIC), Pore K-12
[9] = Table 14A, porinated, read-out: Minimum inhibitory concentration, K-12 (WT)-Pore

Row | Compound | Fold change of MICs (E. coli EKO-35) [fold] | Minimum inhibitory concentration (MIC), EKO-35 (E. coli EKO-35; Table 10, without pore) [µg/mL] | Minimum Inhibitory Concentration, EKO-35 (E. coli EKO-35; Table 13A, non-porinated) [µg/mL] | Minimum inhibitory concentration (MIC), ΔtolC (E. coli ΔtolC) [µg/mL] | Fold changes of MICs (EKO-35-Pore) [fold] | Minimum inhibitory concentration (MIC), Pore ΔtolC (ΔtolC-Pore) [µg/mL] | Fold change of MICs (EKO-35 araC::mdtEF) [fold] | Fold change of MICs (EKO-35 araC::acrB) [fold] | MIC (E. coli EKO-35; [2]) [µg/mL] | MIC (E. coli EKO-35; [3]) [µg/mL] | MIC [1, 4] [µg/mL] | MIC [1, 5] [µg/mL] | MIC (E. coli ΔtolC) [µg/mL] | MIC (EKO-35-Pore; [6]) [µg/mL] | MIC (EKO-35-Pore; [7]) [µg/mL] | MIC (ΔtolC-Pore) [µg/mL] | MIC (wild-type (WT) K-12-Pore; [8]) [µg/mL] | MIC (wild-type (WT) K-12-Pore; [9]) [µg/mL] | MIC (EKO-35 araC::mdtEF) [µg/mL] | MIC (EKO-35 araC::acrB) [µg/mL] | also measured
1 | deoxycholate | 1 | 375 | 375 | 187.5 | 1 | 46.875 | 4 | 4 | – | – | – | – | – | – | – | – | – | – | – | – | Minimum inhibitory concentration (MIC), K-12 ([1]; Table 10, without pore): 1500 µg/mL; Minimum Inhibitory Concentration, K-12 ([1]; Table 13A, non-porinated): 1500 µg/mL; Minimum Inhibitory Concentration, ΔtolC (E. coli ΔtolC): 187.5 µg/mL; Minimum inhibitory concentration (MIC), Pore EKO-35 (EKO-35-Pore; Table 10, with pore): 187.5 µg/mL; Minimum inhibitory concentration, EKO-35-Pore (EKO-35-Pore; Table 14A, porinated): 187.5 µg/mL; Minimum inhibitory concentration, ΔtolC-Pore (ΔtolC-Pore): 46.875 µg/mL; Minimum inhibitory concentration (MIC), Pore K-12 (wild-type (WT) K-12-Pore; Table 10, with pore): 1500 µg/mL; Minimum inhibitory concentration, K-12 (WT)-Pore (wild-type (WT) K-12-Pore; Table 14A, porinated): 1500 µg/mL; Minimum Inhibitory Concentration, EKO-35 araC::mdtEF (EKO-35 araC::mdtEF): 1500 µg/mL; Minimum Inhibitory Concentration, EKO-35 araC::acrB (EKO-35 araC::acrB): 1500 µg/mL
2 | CO[C@H]1/C=C/O[C@@]2(C)Oc3c(C)c(O)c4c(O)c(c(/C=N/N5CCN(C)CC5)c(O)c4c3C2=O)NC(=O)/C(C)=C\C=C\[C@H](C)[C@H](O)[C@@H](C)[C@@H](O)[C@@H](C)[C@H](OC(C)=O)[C@@H]1C [rifampicin] | 1 | – | – | 6.25 | 1 | 0.391 | – | – | 6.25 | 6.25 | 12.5 | 12.5 | 6.25 | 0.391 | 0.391 | 0.391 | 0.781 | 0.781 | 6.25 | 6.25 | –
3 | CN(C)c1ccc(O)c2c1C[C@H]1C[C@H]3[C@H](N(C)C)C(O)=C(C(N)=O)C(=O)[C@@]3(O)C(O)=C1C2=O [minocycline] | 1 | – | – | 0.098 | 1 | 0.098 | 1 | 8 | 0.049 | 0.049 | 0.781 | 0.781 | 0.098 | 0.049 | 0.049 | 0.098 | 0.781 | 0.781 | 0.049 | 0.391 | –
4 | N#CC(C#N)=NNc1ccc(-n2ccc(C(F)(F)F)n2)cc1 [compound 8] | 1 | 320 | 320 | 1.25 | 1 | 1.25 | 1 | – | – | – | – | – | – | – | – | – | – | – | – | – | Minimum inhibitory concentration (MIC), K-12 ([1]; Table 10, without pore): 640 µg/mL; Minimum Inhibitory Concentration, K-12 ([1]; Table 13A, non-porinated): 640 µg/mL; Minimum Inhibitory Concentration, ΔtolC (E. coli ΔtolC): 1.25 µg/mL; Minimum inhibitory concentration (MIC), Pore EKO-35 (EKO-35-Pore; Table 10, with pore): 80 µg/mL; Minimum inhibitory concentration, EKO-35-Pore (EKO-35-Pore; Table 14A, porinated): 80 µg/mL; Minimum inhibitory concentration, ΔtolC-Pore (ΔtolC-Pore): 1.25 µg/mL; Minimum inhibitory concentration (MIC), Pore K-12 (wild-type (WT) K-12-Pore; Table 10, with pore): 160 µg/mL; Minimum inhibitory concentration, K-12 (WT)-Pore (wild-type (WT) K-12-Pore; Table 14A, porinated): 160 µg/mL; Minimum Inhibitory Concentration, EKO-35 araC::mdtEF (EKO-35 araC::mdtEF): 320 µg/mL; Minimum Inhibitory Concentration, EKO-35 araC::acrB (EKO-35 araC::acrB): 640 µg/mL
5 | C[C@@H]1O[C@@H]1P(=O)(O)O [fosfomycin] | 1 | – | – | 6.25 | 1 | 3.125 | – | 1 | 3.12 | 3.12 | 6.25 | 6.25 | 6.25 | 0.781 | 0.781 | 3.12 | 3.12 | 3.12 | 1.56 | 1.56 | –
6 | COc1cccc2c1C(=O)c1c(O)c3c(c(O)c1C2=O)C[C@@](O)(C(C)=O)C[C@@H]3O[C@H]1C[C@H](N)[C@H](O)[C@H](C)O1 [daunorubicin] | 1 | – | – | 1.563 | 1 | 0.781 | 64 | 64 | 3.12 | 3.12 | 200 | 200 | 1.56 | 0.781 | 0.781 | 0.781 | 100 | 100 | 200 | 200 | –
7 | CC(C)(C)c1cc(C(=O)NNC(=O)Nc2cccc3ccccc23)n(Cc2ccc(F)cc2)n1 [compound 4] | 1 | 20 | 20 | 10 | 1 | 1.25 | 16 | 16 | – | – | – | – | – | – | – | – | – | – | – | – | susceptibility of EKO-35 to the compound (E. coli EKO-35; synthetic efflux substrates of FIG. 12): susceptible; Minimum inhibitory concentration (MIC), K-12 ([1]; Table 10, without pore): 320 µg/mL; Minimum Inhibitory Concentration, K-12 ([1]; Table 13A, non-porinated): 320 µg/mL; Minimum Inhibitory Concentration, ΔtolC (E. coli ΔtolC): 10 µg/mL; Minimum inhibitory concentration (MIC), Pore EKO-35 (EKO-35-Pore; Table 10, with pore): 2.5 µg/mL; Minimum inhibitory concentration, EKO-35-Pore (EKO-35-Pore; Table 14A, porinated): 2.5 µg/mL; Minimum inhibitory concentration, ΔtolC-Pore (ΔtolC-Pore): 1.25 µg/mL; Minimum inhibitory concentration (MIC), Pore K-12 (wild-type (WT) K-12-Pore; Table 10, with pore): 320 µg/mL; Minimum inhibitory concentration, K-12 (WT)-Pore (wild-type (WT) K-12-Pore; Table 14A, porinated): 320 µg/mL; Minimum Inhibitory Concentration, EKO-35 araC::mdtEF (EKO-35 araC::mdtEF): 320 µg/mL; Minimum Inhibitory Concentration, EKO-35 araC::acrB (EKO-35 araC::acrB): 320 µg/mL
8 | CC[C@H]1OC(=O)[C@H](C)[C@@H](O[C@H]2C[C@@](C)(OC)[C@@H](O)[C@H](C)O2)[C@H](C)[C@@H](O[C@@H]2O[C@H](C)C[C@H](N(C)C)[C@H]2O)[C@](C)(O)C[C@@H](C)CN(C)[C@H](C)[C@@H](O)[C@]1(C)O [azithromycin] | 1 | – | – | 0.781 | 1 | 0.049 | 8 | 16 | 0.781 | 0.781 | 6.25 | 6.25 | 0.781 | 0.049 | 0.049 | 0.049 | 0.391 | 0.391 | 6.25 | 12.5 | –
